Reference: publication PMC8474110 (Journal of Medicinal Chemistry, 2021)
Where a name gives a salt, the structure may show the parent alone. Read-outs that look alike come from different tables or passages of the source.

Key:
human UM 92-1 cells = assay: Crystal violet proliferation assay in human UM 92-1 cells; type: cell-based; details: for effect on 92-1 cell proliferation compared to the vehicle control: VPA 2 mM, HP 10 μM, (±)-HP-mII 30 μM (predicted IC50 values); for effect alone on proliferation of human UM 92-1 cells: 2 μM
Procedure: Then, actions on cell proliferation were examined by crystal violet staining (Figure 6).
HREC and human 92-1 cell (seeded 4 × 10^3 and grown for 24 h at optimum culture conditions) proliferation was measured using crystal violet staining after treatment in 96-well plates with the indicated concentrations of chemicals for an additional 48 h. Control cells received an equal volume of vehicle (DMSO). At the end of the treatment, each well was washed with phosphate-buffered saline (PBS). Following this, the cells were fixed (in 4% paraformaldehyde) and stained with crystal violet solution (0.5% in 20% methanol for HREC or 1% aqueous solution for 92-1 cells). Subsequently, the plate was washed with water and left to dry. Crystal violet staining was evaluated by measuring the absorbance at 570 nm or 590 nm, after crystal violet extraction with 10% acetic acid (at room temperature for 10 min), with a microplate reader with the plate reader (Synergy 2-BioTek). For quantification, each assay was carried out in triplicate.

HREC = details: cited from earlier work
σ2 receptor = molecular target: T1, σ2 receptor (Cavia porcellus, UniProt H0V073); details: guinea pig brain membranes; cited from earlier work
T1 construct: the guinea pig brain membranes (300 μL, 360 μg protein) were incubated for 120 min at room temperature with 3 nM [^3H]-DTG; from tissue; host or cells: guinea pig brain membranes
T1 sequence (H0V073 1-176): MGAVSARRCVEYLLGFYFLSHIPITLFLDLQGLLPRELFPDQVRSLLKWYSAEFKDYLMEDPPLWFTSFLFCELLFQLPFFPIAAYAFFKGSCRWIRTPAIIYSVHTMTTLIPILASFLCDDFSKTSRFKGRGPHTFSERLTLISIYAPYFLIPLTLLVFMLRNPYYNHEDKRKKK

inoperable UM patients = system: inoperable UM patients; parameters: method as in PMID 25315663, PMID 23218699, PMID 21880788; details: at 4 months; cited from earlier work

Question: Which “effect on 92-1 cell proliferation compared to the vehicle control” value (human UM 92-1 cells) does the source give for `CCCC(CCC)C(=O)O` [VPA, valproic acid] here?
Answer: significantly inhibited

Question: And the “pIC50 ± SE, MTT viability test on HREC” value (HREC; 24 h)?
Answer: 2.91 ± 0.01

Question: What about the “pIC50 ± SE, MTT viability test on HREC” value (HREC; 48 h) of the same compound?
Answer: 2.84 ± 0.03

Question: And the “pIC50 ± SE, MTT viability test on HREC” value (HREC; 72 h)?
Answer: 2.86 ± 0.01

Question: For `O[C@@H](CCCN1CCC(O)(c2ccc(Cl)cc2)CC1)c1ccc(F)cc1` [(−)-4], which Ki (σ2 receptor) is on record?
Answer: 9.8 ± 1.8 nM

Question: With `CCCC(CCC)C(=O)O[C@H](CCCN1CCC(O)(c2ccc(Cl)cc2)CC1)c1ccc(F)cc1` (as salt: oxalate) [(+)-1] as the compound, how does the melting point read?
Answer: 159 to 164 °C

Question: For `CC(C)=CCN1CC[C@]2(C)c3cc(O)ccc3C[C@H]1[C@H]2C` [PTZ, (+)-pentazocine, reference compound], which “effect alone on proliferation of human UM 92-1 cells” value (human UM 92-1 cells) is on record?
Answer: promote

Question: With `c1ccc(CCN2CCCCC2)cc1` [AC927, 1-phenethylpiperidine, reference compound] as the compound, how does the “effect alone on proliferation of human UM 92-1 cells” value (human UM 92-1 cells) read?
Answer: promote

Question: Which melting point does the source give for `CCCC(CCC)C(=O)O[C@@H](CCCN1CCC(O)(c2ccc(Cl)cc2)CC1)c1ccc(F)cc1` (as salt: oxalate) [(−)-1] here?
Answer: 158 to 160 °C

Question: Which progression-free survival (inoperable UM patients) does the source give for “AFL: VEGF-trap aflibercept, a popular drug in ophthalmology” here?
Answer: 50%

Question: Which “effect on 92-1 cell proliferation compared to the vehicle control” value (human UM 92-1 cells) does the source give for `OC(CCCN1CCC(O)(c2ccc(Cl)cc2)CC1)c1ccc(F)cc1` (racemic) [(±)-HP-mII, haloperidol metabolite II] here?
Answer: significantly inhibited

Question: And the Ki (σ2 receptor)?
Answer: 2.4 ± 0.7 nM

Question: What about the “pIC50 ± SE, MTT viability test on HREC” value (HREC; 48 h) of the same compound?
Answer: 3.89 ± 0.04

Question: And the “pIC50 ± SE, MTT viability test on HREC” value (HREC; 72 h)?
Answer: 4.16 ± 0.03
